Experimental data as given in US10232060B2, “CEST systems exhibiting a concentration independent responsiveness” (BRACCO IMAGING S.P.A., priority 2010, dated 2019).

Experiments:
Type in all cases: physicochemical
[1] = Z-spectrum / NMR resonances of the exchangeable OH protons of NMR-distinguishable isomers in solution
Excerpt: (§1) CEST MR contrast enhancement have been determined on images acquired at 7 T on a Bruker Avance 300 spectrometer equipped with a Micro2.5 microimaging probe. A typical RARE spin-echo sequence (rare factor 64) with an echo time of 3.3 ms and a TR value of 5 s were used. An acquisition matrix of 64×64 with a square FOV of 10 mm was used. The whole sequence was preceded by a saturation scheme consisting of a continuous wave pulse 2 s long with a RF intensity of 24, 12, 6 μT. The Z-spectra were successively analyzed in order to determine the ratiometric value by using a software compiled in MATLAB platform operating, broadly, as disclosed in Development and validation of a smoothing-splines-based correction method for improving the analysis of CEST-MR images, Stancanello J Terreno E, Delli Castelli D, Cabella C, Uggeri F 1, Aime S.; CONTRAST MEDIA & MOLECULAR IMAGING Volume: 3, Issue: 4, Pages: 136-149, 2008; and in Methods for an improved detection of the MRI-CEST effect. Terreno E, Stancanello 3, Longo D, Delli Castelli D, Milone L, Sanders H M H F, Kok M B, Uggeri F, Aime S; CONTRAST MEDIA & MOLECULAR IMAGING; Volume: 4; Issue: 5; Pages: 237-247; 2009 that are all herein included by reference. The total paramagnetic concentration of the solution was determined through the measurement of magnetic susceptibility of the solution on a Bruker Avance 600 spectrometer (12T).

[2] = In vitro responsiveness towards pH (CEST MRI of phantom, ratiometric ST); settings: in vitro solutions buffered at different pH
Excerpt: as §1, with “[…]. […]” for “(12T).”

[3] = In vitro responsive properties towards temperature (Z-spectra); settings: for resonance frequency of hydroxylic protons, less shifted stereoisomer / resonance frequency of hydroxylic protons, more shifted stereoisomer: 24 mM, pH 7.31
Method: A solution of Yb(III)HPDO3A (24 mM) having pH 7.31 was used for test.
The test was performed with a phantom containing solution of YbHPDO3A-tetramer in serum having different concentration, ranging from 0.26 to 8.4 mM., pH 7.4 and 298K. The dependence of the chemical shifts of the OH mobile protons (of the tetrameric complex stereoisomers) on the Temperature was tested by operating as formerly described for the monomeric compound.

Compound	chemical shift of hydroxyl group, less shifted NMR-distinguishable diastereoisomer ([1]; 20° C.) [ppm]	chemical shift of hydroxyl group, more shifted NMR-distinguishable diastereoisomer ([1]; 20° C.) [ppm]	responsiveness of the saturation transfer towards pH (in words) [2]	sensitivity of the OH chemical shift to temperature (in words) [3]	resonance frequency of hydroxylic protons, less shifted stereoisomer ([3]; 20° C.) [ppm]	resonance frequency of hydroxylic protons, more shifted stereoisomer ([3]; 20° C.) [ppm]	resonance frequency of hydroxylic protons, less shifted stereoisomer ([3]; 37° C.) [ppm]	resonance frequency of hydroxylic protons, more shifted stereoisomer ([3]; 37° C.) [ppm]	chemical shift of OH proton, first diastereoisomer (from water) ([1]; pH=2 and 37° C.) [ppm]	chemical shift of OH proton, second diastereoisomer ([1]; pH=2 and 37° C.) [ppm]
CC(O)CN1CCN(CC(=O)[O-])CCN(CC(=O)[O-])CCN(CC(=O)[O-])CC1.[Yb+3] (centres unmarked) [YbHPDO3A]	72	99	is different	very sensitive to the temperature	72	99	64.3	88	–	–
CC(O)CN1CCN(CC(=O)[O-])CCN(CC(=O)[O-])CCN(CC(=O)[O-])CC1.[Eu+3] (centres unmarked) [EuHPDO3A]	–	–	–	–	–	–	–	–	20.5	16.7
1,23-bis[4,7,10-triacetate[1,4,7,10-tetraazacyclododecan-(1)-yl]]-12,12′-bis[11[4,7,10-triacetate)-[1,4,7,10-tetraazacyclododecan-(1)-yl]]2-aza-3-oxo-5,8-dioxy-10-hydroxyundecanyl]2,22-dihydroxy-4,7,17,20-tetroxy-9,15-dioxo-10,14-diazatricosane tetra Ytterbium Complex (1:4) [YbHPDO3A-tetramer]	–	–	–	greatly increased	–	–	–	–	–	–
